The numbers were not newly measured in patent US9920347B2, “Methods for producing virus particles with simplified glycosylation of surface proteins” (priority 2010, dated 2018), which cites them from elsewhere.

Data set [1] has as its target alpha-glucosidase amyloglucosidase (Aspergillus niger, UniProt P69328). As to conditions: read-out: concentration giving 50% inhibition of amyloglucosidase.
For the next data set, the system named is intact cells. The settings on record: glycoproteins with Man7-9(GlcNAc)2 structures accumulate.
The subject of data set [2] is animal Golgi enzyme, mannosidase I.
The subject of data set [3] is rat epididymal α-mannosidase.
The next data set deals with T1, Golgi mannosidase II (Homo sapiens, UniProt Q16706).
T1 sequence (Q16706 1-1144): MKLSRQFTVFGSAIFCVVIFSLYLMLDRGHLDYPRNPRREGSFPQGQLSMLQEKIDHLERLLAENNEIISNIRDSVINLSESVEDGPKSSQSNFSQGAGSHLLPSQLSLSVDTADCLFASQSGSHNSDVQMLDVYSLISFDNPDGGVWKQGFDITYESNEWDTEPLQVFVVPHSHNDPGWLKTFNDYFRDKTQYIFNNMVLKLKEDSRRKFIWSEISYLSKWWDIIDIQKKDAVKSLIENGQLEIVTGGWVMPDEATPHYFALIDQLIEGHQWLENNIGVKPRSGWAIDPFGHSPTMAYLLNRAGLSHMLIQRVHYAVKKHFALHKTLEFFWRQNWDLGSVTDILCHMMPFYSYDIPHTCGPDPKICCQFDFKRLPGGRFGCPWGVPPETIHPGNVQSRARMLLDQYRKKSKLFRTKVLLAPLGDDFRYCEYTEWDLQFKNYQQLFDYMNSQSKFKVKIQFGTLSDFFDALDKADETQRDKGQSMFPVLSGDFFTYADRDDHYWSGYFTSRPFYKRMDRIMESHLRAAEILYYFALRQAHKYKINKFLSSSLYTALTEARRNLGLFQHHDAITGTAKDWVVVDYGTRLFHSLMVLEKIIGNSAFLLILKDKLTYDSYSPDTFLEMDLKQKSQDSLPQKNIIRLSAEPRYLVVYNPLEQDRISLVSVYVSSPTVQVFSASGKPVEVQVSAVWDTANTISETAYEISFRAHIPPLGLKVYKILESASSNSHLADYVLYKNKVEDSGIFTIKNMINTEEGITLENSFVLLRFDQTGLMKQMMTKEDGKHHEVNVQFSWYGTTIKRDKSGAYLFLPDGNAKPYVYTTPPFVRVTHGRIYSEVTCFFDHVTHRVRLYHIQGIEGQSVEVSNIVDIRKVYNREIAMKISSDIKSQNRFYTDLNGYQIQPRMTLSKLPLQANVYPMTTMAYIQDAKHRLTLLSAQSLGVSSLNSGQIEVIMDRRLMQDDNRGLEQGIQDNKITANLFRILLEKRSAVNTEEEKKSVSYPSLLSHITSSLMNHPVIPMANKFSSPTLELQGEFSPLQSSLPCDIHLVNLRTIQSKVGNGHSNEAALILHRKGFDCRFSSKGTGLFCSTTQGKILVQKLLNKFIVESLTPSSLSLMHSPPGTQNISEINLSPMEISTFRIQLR

alpha-glucosidase amyloglucosidase, sequence (P69328 25-640): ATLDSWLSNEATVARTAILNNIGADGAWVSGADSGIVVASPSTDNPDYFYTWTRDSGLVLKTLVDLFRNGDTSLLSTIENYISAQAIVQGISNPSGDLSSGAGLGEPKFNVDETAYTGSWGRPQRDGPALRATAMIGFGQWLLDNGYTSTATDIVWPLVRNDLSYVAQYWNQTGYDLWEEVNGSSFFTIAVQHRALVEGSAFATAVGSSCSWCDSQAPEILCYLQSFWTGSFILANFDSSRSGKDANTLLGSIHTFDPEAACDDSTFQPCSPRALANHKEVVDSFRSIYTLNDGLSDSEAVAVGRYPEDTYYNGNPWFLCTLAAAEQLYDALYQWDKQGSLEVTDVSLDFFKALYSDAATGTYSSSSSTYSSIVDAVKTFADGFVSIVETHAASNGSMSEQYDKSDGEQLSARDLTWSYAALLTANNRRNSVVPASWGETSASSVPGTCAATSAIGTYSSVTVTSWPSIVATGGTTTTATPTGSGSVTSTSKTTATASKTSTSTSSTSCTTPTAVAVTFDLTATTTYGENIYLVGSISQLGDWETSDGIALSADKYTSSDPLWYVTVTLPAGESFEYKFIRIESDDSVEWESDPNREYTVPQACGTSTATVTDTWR

With `OC[C@@H]1[C@@H](O)[C@H](O)[C@H]2[C@@H](O)CCN21` [Australine], in data set [1], the IC50 was 5.8 µM. Besides, in the data set with beta-glucosidase, the inhibition of beta-glucosidase entry is listed as “did not inhibit”. The inhibition of beta-galactosidase entry with beta-galactosidase was “did not inhibit”. In the data set with alpha-mannosidase, the inhibition of alpha-mannosidase entry is on record as “did not inhibit”. The inhibition of beta-mannosidase result in the data set on beta-mannosidase is “did not inhibit”. Further, the inhibition of alpha-galactosidase entry in the data set with alpha-galactosidase is given as “did not inhibit”.
Take `O[C@H]1[C@H](O)[C@@H](O)CN2CC[C@H](O)[C@H]12` [Castanospermine]: the “inhibition of dengue virus infection” value in the data set with dengue virus is listed as “inhibits”. Besides, the “inhibition of alpha-glucosidase activities” value in the data set with alpha-glucosidase is reported as “inhibits”.
As to `OC[C@H]1NC[C@@H](O)[C@@H](O)[C@@H]1O` [Deoxymannojirimycin], the “inhibition of rat liver mammosidase I” value in the data set with rat liver mammosidase I is “fairly potent inhibitor”. The “effect on synthesis of complex types of N-linked oligosaccharides” value in the data set with intact cells is on record as “blocked the synthesis of complex types of N-linked oligosaccharides”. For the same compound, the “prevention of formation of complex chains” value in the data set with cultured mammalian cells (50 μg/ml) was “does not prevent the formation of all complex chains”.
In the case of `O=C1N[C@@H]2[C@@H](O)[C@@H](O)[C@H](O)[C@@H](CO)N2C1=O` [Kifunensine], the “shift of N-linked oligosaccharides from complex chains to Man9(GlcNAc)2 structures” value in the data set with cultured mammalian cells (1 μg/ml or higher) was “complete shift”. Further, in data set [2], the “inhibition of mannosidase I” value is recorded as “inhibits”.
Turning to `CS[C@@H]1[C@@H](N)[C@@H](O)[C@@H](O)[C@H]1O` [Mannostatin A], in data set [3], the “inhibition of rat epididymal α-mannosidase” value is given as “potent inhibitor”.
On to `O[C@H]1[C@H]2[C@H](O)CCCN2C[C@H]1O` [Swainsonine], for which the “effect on mannosidase 1” value in the data set on mannosidase 1 was “no effect”. For the same compound, the “inhibition of Golgi mannosidase II” value on Golgi mannosidase II is recorded as “potent inhibitor”.
